{"source": "ChEMBL document CHEMBL1201862", "about": "“PubChem BioAssay data set” (2004)", "key": {"[1]": {"target": "Mitogen-activated protein kinase 10 (Homo sapiens, UniProt P53779)", "sequence (P53779 whole entry)": "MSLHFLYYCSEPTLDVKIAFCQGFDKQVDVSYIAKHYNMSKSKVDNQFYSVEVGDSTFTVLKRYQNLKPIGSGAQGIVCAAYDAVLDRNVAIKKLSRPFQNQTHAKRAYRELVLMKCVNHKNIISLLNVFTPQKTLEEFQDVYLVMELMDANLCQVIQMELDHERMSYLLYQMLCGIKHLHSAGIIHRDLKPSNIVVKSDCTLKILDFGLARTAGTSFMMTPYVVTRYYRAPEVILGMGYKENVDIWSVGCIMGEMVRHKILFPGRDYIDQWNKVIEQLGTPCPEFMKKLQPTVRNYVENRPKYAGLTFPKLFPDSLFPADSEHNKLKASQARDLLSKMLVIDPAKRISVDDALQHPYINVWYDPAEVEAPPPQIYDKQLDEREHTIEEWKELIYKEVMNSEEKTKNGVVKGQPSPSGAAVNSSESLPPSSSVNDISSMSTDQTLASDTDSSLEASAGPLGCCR", "experiment": "Dose response biochemical screening assay for inhibitors of c-Jun N-Terminal Kinase 3 (JNK3). [Related pubchem assays: 746 ]"}, "[2]": {"experiment": "HPDE-C7 pancreatic duct cell viability loss – fluorescence, HTS (AID 430)", "assay_type": "functional, cell-based", "conditions": "Homo sapiens"}, "HEK293": {"system": "HEK293", "experiment": "EBV LMP1 TES2 canonical NF-kB signalling blockers – cell-based, HEK293, luciferase, cherry-pick, dose response (AID 588343)", "assay_type": "functional", "conditions": "Homo sapiens"}, "[3]": {"experiment": "loss of viability in HepG2 cells – cell-based, CellTiter-Glo, cherry-picked, cytotoxicity control for Shn3 inhibitor project, dose response (AID 624134)", "assay_type": "functional"}, "cells": {"experiment": "cells", "assay_type": "functional, cell-based", "conditions": "HEK-CNG"}, "[4]": {"system": "Streptococcus sp. 'group A'", "experiment": "Streptococcus pyogenes SK(-)GAS viability under kanamycin – luminescence, BacTiterGlo, confirmation, counter-screen for streptokinase expression inhibitor project, dose response (AID 1900)", "assay_type": "functional, organism-based"}, "Galanin receptor type 3": {"target": "Galanin receptor type 3 (Homo sapiens, UniProt O60755)", "sequence (O60755 whole entry)": "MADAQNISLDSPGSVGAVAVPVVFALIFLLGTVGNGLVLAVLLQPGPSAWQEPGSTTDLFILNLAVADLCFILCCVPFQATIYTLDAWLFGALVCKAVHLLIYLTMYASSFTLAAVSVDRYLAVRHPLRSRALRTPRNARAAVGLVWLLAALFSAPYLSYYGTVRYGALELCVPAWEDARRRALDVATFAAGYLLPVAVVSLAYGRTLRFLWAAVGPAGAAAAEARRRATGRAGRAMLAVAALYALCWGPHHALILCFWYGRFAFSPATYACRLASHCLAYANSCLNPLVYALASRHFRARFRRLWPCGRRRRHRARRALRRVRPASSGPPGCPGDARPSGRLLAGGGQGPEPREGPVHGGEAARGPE", "experiment": "Fluorescence-based cell-based primary high throughput dose response assay to identify antagonists of the Galanin Receptor 3 (GalR3).", "assay_type": "functional"}, "Streptococcus": {"system": "Streptococcus", "experiment": "GAS UMAA2166 growth inhibition – luminescence, BacTiterGlo, counter-screen for streptokinase expression inhibitor project, dose response (AID 1915)", "assay_type": "functional, organism-based"}, "[5]": {"experiment": "reduction of Shn3 3'UTR-driven luciferase in osteoblasts – cell-based, Clone20 osteoblasts, firefly luciferase, cherry-picked, dose response (AID 624132)", "assay_type": "functional"}, "[6]": {"experiment": "viability loss of HPDE-C7K cells – cell-based, fluorescence, HTS, primary screen (AID 431)", "assay_type": "functional", "conditions": "Homo sapiens"}, "[7]": {"experiment": "non-specific 3'UTR reporter inhibition in Clone20-Shn3RL – cell-based, Renilla luciferase, cherry-picked, counter-screen for Shn3 inhibitor project, dose response (AID 624133)", "assay_type": "functional"}, "[8]": {"target": "Sphingosine 1-phosphate receptor 2 (Homo sapiens, UniProt O95136)", "sequence (O95136 whole entry)": "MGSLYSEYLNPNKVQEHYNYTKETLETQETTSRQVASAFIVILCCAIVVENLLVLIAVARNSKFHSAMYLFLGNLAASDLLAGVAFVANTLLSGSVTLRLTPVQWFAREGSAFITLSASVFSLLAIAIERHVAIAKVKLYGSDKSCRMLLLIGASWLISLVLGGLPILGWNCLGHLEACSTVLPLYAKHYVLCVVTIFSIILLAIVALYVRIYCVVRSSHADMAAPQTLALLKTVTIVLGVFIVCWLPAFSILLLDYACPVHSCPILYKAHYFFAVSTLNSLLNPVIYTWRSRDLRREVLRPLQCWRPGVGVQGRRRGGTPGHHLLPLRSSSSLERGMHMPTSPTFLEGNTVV", "experiment": "Dose Response Cell Based Assay for Antagonists of the S1P2 Receptor. [Related pubchem assays: 856, 736 ]", "assay_type": "functional"}, "[9]": {"target": "E3 ubiquitin-protein ligase Mdm2 (Homo sapiens, UniProt Q00987)", "sequence (Q00987 whole entry)": "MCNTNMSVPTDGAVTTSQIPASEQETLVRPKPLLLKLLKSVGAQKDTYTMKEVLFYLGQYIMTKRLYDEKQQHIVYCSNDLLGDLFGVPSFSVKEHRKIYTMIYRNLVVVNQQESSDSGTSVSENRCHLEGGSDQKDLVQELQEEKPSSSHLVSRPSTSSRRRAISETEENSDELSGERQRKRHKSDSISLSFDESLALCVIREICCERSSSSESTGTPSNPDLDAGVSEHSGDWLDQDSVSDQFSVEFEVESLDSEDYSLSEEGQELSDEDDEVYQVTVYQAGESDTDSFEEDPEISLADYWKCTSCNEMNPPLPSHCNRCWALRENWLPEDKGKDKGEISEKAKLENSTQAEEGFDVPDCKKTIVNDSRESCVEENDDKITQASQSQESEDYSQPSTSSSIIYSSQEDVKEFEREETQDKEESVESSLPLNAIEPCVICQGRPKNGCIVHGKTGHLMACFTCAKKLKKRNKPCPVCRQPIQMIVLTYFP", "experiment": "MDM2-luc reporter signal enhancers, multi-concentration potency testing, MDM2 ubiquitin-protein ligase inhibitor program, whole-cell format, luminescence detection, 384-well microplate (AID 1394);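 note: MDM2 E3 inhibitors raise luminescence so EC50 is for signal enhancement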", "assay_type": "functional"}, "[10]": {"target": "T1, Zinc finger protein mex-5 (Caenorhabditis elegans, UniProt Q9XUB2)", "T1 sequence (Q9XUB2 whole entry)": "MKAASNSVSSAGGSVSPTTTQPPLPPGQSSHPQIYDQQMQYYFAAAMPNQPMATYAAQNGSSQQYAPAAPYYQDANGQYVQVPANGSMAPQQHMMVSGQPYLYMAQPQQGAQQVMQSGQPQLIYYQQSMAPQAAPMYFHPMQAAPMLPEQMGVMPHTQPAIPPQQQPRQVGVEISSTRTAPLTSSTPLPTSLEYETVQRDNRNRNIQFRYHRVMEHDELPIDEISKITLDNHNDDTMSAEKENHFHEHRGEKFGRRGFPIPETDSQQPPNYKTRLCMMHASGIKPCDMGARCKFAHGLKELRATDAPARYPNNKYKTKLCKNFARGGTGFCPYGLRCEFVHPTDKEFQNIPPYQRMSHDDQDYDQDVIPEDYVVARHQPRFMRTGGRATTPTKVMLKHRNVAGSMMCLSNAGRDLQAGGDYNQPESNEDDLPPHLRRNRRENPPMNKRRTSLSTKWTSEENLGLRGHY", "experiment": "potency of MEX-5 RNA-binding blockers – biochemical, C. elegans, fluorescence polarization, dose response (AID 1960)"}, "[11]": {"target": "T2, Histone-lysine N-methyltransferase NSD2 (Homo sapiens, UniProt O96028)", "T2 sequence (O96028 whole entry)": "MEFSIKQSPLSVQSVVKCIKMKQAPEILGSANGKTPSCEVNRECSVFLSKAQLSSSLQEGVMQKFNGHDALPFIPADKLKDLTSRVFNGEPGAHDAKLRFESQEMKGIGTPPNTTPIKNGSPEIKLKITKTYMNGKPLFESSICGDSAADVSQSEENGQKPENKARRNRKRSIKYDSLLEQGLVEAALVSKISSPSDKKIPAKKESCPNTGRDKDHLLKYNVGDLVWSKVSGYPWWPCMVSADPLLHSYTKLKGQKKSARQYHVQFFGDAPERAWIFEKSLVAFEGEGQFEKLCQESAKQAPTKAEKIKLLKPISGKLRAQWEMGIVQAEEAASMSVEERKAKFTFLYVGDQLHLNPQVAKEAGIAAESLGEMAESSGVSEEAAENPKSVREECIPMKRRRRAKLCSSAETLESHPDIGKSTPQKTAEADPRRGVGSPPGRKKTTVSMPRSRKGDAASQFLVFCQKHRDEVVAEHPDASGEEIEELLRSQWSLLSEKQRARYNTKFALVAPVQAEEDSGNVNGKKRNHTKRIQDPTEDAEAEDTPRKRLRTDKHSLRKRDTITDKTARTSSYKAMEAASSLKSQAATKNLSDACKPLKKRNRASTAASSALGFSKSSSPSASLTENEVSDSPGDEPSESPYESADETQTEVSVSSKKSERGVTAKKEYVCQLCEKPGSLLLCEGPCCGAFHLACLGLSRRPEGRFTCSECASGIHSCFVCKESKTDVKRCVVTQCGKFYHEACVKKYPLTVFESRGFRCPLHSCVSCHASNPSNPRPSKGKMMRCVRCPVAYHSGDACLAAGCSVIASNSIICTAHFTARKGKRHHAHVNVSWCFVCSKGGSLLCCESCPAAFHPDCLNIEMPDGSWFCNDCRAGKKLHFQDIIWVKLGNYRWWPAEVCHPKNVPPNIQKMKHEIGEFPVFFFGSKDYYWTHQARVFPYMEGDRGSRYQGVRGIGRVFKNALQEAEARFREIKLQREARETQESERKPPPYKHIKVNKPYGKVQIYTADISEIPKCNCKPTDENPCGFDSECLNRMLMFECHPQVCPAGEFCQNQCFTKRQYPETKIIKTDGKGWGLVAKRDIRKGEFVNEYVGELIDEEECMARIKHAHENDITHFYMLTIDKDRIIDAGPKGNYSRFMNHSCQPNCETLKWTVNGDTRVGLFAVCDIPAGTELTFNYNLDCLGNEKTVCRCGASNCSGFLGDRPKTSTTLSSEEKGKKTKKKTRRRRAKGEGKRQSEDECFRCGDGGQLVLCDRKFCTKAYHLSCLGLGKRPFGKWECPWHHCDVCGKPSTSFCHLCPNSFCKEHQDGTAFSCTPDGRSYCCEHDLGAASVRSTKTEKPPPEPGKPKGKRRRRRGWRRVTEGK", "assay_type": "biochemical"}, "[12]": {"target": "T3, Dual specificity protein phosphatase 6 (Rattus norvegicus, UniProt Q64346)", "T3 sequence (Q64346 whole entry)": "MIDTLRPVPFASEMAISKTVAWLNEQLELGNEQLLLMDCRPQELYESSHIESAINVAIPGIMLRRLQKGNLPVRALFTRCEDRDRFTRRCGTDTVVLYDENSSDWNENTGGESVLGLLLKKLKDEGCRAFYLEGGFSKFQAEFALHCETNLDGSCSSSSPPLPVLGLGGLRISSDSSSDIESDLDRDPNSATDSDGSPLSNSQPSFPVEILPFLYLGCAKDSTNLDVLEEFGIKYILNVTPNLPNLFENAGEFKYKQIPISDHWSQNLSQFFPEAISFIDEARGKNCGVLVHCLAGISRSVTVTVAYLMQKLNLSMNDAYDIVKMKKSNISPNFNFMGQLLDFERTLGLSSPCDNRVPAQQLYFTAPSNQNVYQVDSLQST", "experiment": "inhibition of rat DUSP6 enzyme activity – biochemical, in vitro, primary screen (AID 425)"}, "[13]": {"target": "Bifunctional protein GlmU (Mycobacterium tuberculosis, UniProt P9WMN3)", "sequence (P9WMN3 whole entry)": "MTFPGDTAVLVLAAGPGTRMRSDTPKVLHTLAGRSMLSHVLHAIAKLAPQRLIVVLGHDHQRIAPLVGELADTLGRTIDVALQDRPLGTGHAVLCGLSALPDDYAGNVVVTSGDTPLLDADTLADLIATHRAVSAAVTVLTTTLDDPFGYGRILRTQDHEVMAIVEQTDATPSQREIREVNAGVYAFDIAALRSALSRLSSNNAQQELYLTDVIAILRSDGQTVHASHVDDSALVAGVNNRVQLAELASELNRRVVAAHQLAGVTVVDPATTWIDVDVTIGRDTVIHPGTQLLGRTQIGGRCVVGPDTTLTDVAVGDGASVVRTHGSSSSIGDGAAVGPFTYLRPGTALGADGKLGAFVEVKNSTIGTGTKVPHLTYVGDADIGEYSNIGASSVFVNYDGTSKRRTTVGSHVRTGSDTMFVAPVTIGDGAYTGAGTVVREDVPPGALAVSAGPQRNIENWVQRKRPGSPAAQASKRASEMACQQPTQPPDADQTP", "experiment": "Inhibitors of Mycobacterial Glucosamine-1-phosphate acetyl transferase (GlmU). Secondary screen.", "set-up": "species or system Mycobacterium tuberculosis H37Rv"}, "Estrogen receptor beta": {"target": "Estrogen receptor beta (Homo sapiens, UniProt Q92731)", "sequence (Q92731 whole entry)": "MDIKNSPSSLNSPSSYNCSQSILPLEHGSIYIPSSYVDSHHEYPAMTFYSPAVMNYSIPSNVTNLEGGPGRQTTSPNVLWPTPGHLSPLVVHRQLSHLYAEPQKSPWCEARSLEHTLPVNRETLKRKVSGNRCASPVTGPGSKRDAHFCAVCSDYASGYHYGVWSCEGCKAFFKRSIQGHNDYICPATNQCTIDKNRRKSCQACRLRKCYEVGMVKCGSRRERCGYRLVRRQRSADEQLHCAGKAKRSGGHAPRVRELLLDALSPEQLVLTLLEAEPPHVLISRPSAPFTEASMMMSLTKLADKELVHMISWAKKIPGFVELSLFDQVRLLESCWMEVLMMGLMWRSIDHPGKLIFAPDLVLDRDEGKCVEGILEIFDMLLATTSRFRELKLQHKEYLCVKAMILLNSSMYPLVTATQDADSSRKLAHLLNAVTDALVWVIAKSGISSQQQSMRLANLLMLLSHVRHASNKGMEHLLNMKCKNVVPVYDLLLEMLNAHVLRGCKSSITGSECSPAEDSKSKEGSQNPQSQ", "experiment": "blockers of SRC-3 recruitment to ERβ – biochemical, ELISA, streptavidin-HRP readout, orthogonal assay, confirmation (AID 1060)"}, "Bcl-2-like protein 10": {"target": "T4, Bcl-2-like protein 10 (Homo sapiens, UniProt Q9HD36)", "T4 sequence (Q9HD36 whole entry)": "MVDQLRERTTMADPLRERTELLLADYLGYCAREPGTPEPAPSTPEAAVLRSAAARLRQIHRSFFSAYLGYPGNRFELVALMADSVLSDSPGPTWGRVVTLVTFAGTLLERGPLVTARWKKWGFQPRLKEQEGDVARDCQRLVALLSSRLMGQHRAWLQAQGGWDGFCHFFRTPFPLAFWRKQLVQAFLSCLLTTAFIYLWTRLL", "experiment": "Bcl-B/TR3 peptide binding disruption – biochemical, fluorescence polarization, FITC-TR3 peptide, selectivity assay for Bfl-1 inhibitor project, primary screen (AID 748);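 note: fluorescence polarization from a fluorescein-labelled TR3 peptide binding purified Bcl-B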"}, "[14]": {"target": "T5, RNA-binding protein pos-1 (Caenorhabditis elegans, UniProt G5EF15)", "T5 sequence (G5EF15 whole entry)": "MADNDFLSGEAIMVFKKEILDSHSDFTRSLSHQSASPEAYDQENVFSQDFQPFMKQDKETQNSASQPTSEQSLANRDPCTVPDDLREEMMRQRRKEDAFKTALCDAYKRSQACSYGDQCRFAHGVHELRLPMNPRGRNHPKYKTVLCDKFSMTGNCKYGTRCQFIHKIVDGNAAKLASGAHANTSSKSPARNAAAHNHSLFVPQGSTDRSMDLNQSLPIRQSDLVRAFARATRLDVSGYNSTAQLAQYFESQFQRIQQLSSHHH", "experiment": "disruptors of C. elegans POS-1 RNA interaction – biochemical, fluorescence polarization, dose response (AID 1964);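 note: purified POS-1 fused to maltose binding protein made in E. coli; potency of compounds blocking POS-1 binding to fluorescent RNA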"}, "[15]": {"target": "T6, Carboxy-terminal domain RNA polymerase II polypeptide A small phosphatase 1 (Homo sapiens, UniProt Q9GZU7)", "T6 sequence (Q9GZU7 whole entry)": "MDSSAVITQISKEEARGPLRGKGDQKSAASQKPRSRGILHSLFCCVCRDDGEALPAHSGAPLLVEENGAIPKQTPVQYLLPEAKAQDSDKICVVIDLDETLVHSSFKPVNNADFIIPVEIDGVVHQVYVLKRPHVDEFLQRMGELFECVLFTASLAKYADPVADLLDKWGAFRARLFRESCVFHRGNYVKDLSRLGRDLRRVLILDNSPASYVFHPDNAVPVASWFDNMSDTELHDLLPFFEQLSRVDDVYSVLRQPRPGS", "experiment": "CTDSP1 inhibitors, concentration-response, biochemical, absorbance readout, ultra-high-throughput screen actives (AID 540297)", "assay_type": "functional"}}, "note": "Active and inactive are the calls of the source."}
{"smiles": "COc1cc(CC(=O)Nc2sccc2C(N)=O)cc(OC)c1OC", "values": [{"measurement": "IC50", "setting": "[1]", "value": "5.94 µM (active)"}]}
{"smiles": "CCC(NC(=O)Nc1nnc(C(F)(F)F)s1)(C(F)(F)F)C(F)(F)F", "values": [{"measurement": "EC50", "setting": "[2]", "value": "2.79 µM (active)"}, {"measurement": "AC50", "setting": "HEK293", "value": "7.24 µM (active)"}, {"measurement": "AC50", "setting": "[3]", "value": "6.87 µM (active)"}, {"measurement": "EC50", "setting": "cells", "value": "> 29.9 µM (inactive)"}, {"measurement": "EC50", "setting": "[4]", "value": "1.4 µM (active)"}, {"measurement": "IC50", "setting": "Galanin receptor type 3", "value": "> 3.32 µM (active)"}, {"measurement": "EC50", "setting": "Streptococcus", "value": "3.27 µM (active)"}, {"measurement": "AC50", "setting": "[5]", "value": "4.15 µM (active)"}, {"measurement": "EC50", "setting": "[6]", "value": "3.15 µM (active)"}, {"measurement": "AC50", "setting": "[7]", "value": "4.23 µM (active)"}, {"measurement": "IC50", "setting": "[8]", "value": "4.77 µM (active)"}]}
{"smiles": "Cc1ccc(NC(=O)CCC2CC(C)(C)OC2=O)cc1", "note": "(stereo unspecified)", "values": [{"measurement": "EC50", "setting": "[9]", "value": "777 µM (not active)"}]}
{"smiles": "O=C(O)c1cccc(-n2cccc2/C=N/O)c1", "values": [{"measurement": "EC50", "setting": "[10]", "value": "> 300 µM (not active)"}, {"measurement": "AC50", "setting": "[11]", "value": "12.2 µM (active)"}, {"measurement": "IC50", "setting": "[12]", "value": "> 10 µM (not active)"}, {"measurement": "IC50", "setting": "[13]", "value": "91.6 µM (active)"}, {"measurement": "IC50", "setting": "Estrogen receptor beta", "value": "< 0.023 µM (not active)"}, {"measurement": "IC50", "setting": "Bcl-2-like protein 10", "value": "18.3 µM (active)"}, {"measurement": "EC50", "setting": "[14]", "value": "> 300 µM (not active)"}, {"measurement": "IC50", "setting": "[15]", "value": "3.09 µM (active)"}]}
